One data set has as its target human NK1 receptor (Homo sapiens (Human), UniProt P25103). Nature of the data set: Human NK1 receptor binding assay: radioligand (125I-Bolton-Hunter-SP) binding inhibition using receptor from human lymphoblast cells (IM-9). As for the experimental part:
42, p. […] The receptor was prepared from human lymphoblast cells (IM-9).

The target of data set [1] is human NK2 (hNK2) receptor (Homo sapiens (Human), UniProt P21452). Put plainly: Human NK2 receptor binding assay: radioligand ([125I]-NK-A) binding inhibition using membrane fraction of CHO cells expressing hNK2 receptor. As to conditions: CHO cell membrane fraction.
Experimental: CHO cells expressing hNK2 receptor were cultured in a HAM-F12 medium containing 400 μg/mL geneticin, 100 U/mL penicillin, 100 μg/mL streptomycin and 10% inactivated serum. The medium was removed, the adhered cells were washed with PBS, and PBS containing 5 mM EDTA was added to detach the cells from the flask. The cells were collected by centrifugation, suspended in suspension buffer A (15 mM Tris-HCl (pH 7.5), 2 mM MgCl2, 0.3 mM ethylenediaminetetraacetic acid (EDTA), 1 mM O,O′-bis(2-aminoethyl)ethyleneglycol-N,N,N′,N′-tetraacetic acid (EGTA)), disrupted by a Polytron homogenizer (Kinematika), and centrifuged at 800×g for 10 min. The supernatant was recovered and ultracentrifuged at 100,000×g for 25 min.
Measurement buffer (50 mM Tris-HCl (pH 7.4), 0.02% bovine serum albumin, 2 μg/mL chymostatin, 40 μg/mL bacitracin, 40 μg/mL APMSF, 3 mM MnCl2) (50 μL) was added to a 96-well microassay plate. The membrane reference standard (20 μg/mL) suspended in a measurement buffer was added by 50 μL.
After reaction at 25° C. for 30 min, the reaction was quenched using a cell harvester (PerkinElmer) by rapid filtration on a GF/C filter plate, and the cells were washed 5 times with 250 μL of a 50 mM Tris-HCl buffer (pH 7.4) containing 0.02% bovine serum albumin. The GF/C filter plate was dried, MicroScinti-0 (PerkinElmer) was added by 20 μL, and the radioactivity was measured on a TopCount (PerkinElmer). The GF/C filter plate used had been immersed in 0.3% polyethyleneimine for one day.
The specific binding level is shown by a value obtained by subtracting non-specific binding level from the total binding level. The binding inhibitory activity of the test compound is shown by a ratio of the value obtained by subtracting the measurement value with addition of a test compound from the total binding level, to the value of the specific binding level.
The target in data set [2] is human NK3 (hNK3) receptor (Homo sapiens (Human), UniProt P29371). Put plainly: Human NK3 receptor binding assay: radioligand ([125I]-NK-B) binding inhibition using membrane fraction of CHO cells expressing hNK3 receptor. Conditions: CHO cell membrane fraction.
Experimental: CHO cells expressing hNK3 receptor were cultured in a MEMα medium (Nikken Seibutsu Igaku Kenkyusho, K.K.) containing 100 U/mL penicillin, 100 μg/mL streptomycin and 10% inactivated dialyzed serum. The medium was removed, the adhered cells were washed with PBS, and PBS containing 5 mM EDTA was added to detach the cells from the flask. The cells were collected by centrifugation, suspended in suspension buffer A (50 mM Tris-HCl (pH 7.4) containing 120 mM NaCl, 5 mM KCl, 2 μg/mL chymostatin, 40 μg/mL bacitracin, 40 μg/mL APMSF, 1 mM EDTA), disrupted by a Polytron homogenizer (Kinematika), and centrifuged at 800×g for 10 min. The supernatant was recovered and ultracentrifuged at 100,000×g for 25 min. The precipitation fraction was suspended in suspension buffer B (50 mM Tris-HCl (pH 7.4), 0.02% bovine serum albumin, 2 μg/mL chymostatin, 40 μg/mL bacitracin, 40 μg/mL APMSF, 3 mM MnCl2), and cryopreserved (−80° C.) as a receptor reference standard. […]
After reaction at 25° C. for 30 min, the reaction was quenched using a cell harvester (PerkinElmer) by rapid filtration on a GF/C filter plate, and the cells were washed 5 times with 250 μL of a 50 mM Tris-HCl buffer (pH 7.4) containing 0.02% bovine serum albumin. The GF/C filter plate was dried, MicroScinti-0 (Perkin Elmer) was added by 20 μL, and the radioactivity was measured on a TopCount (PerkinElmer). […]

Structures are written as SMILES.

Eleven molecules from patent US8470816B2, “Nitrogen-containing heterocyclic compound and use thereof” (Takeda Pharmaceutical Company Limited, priority 2007, dated 2013) can be followed below.

For orientation: IC50 means the concentration that inhibits the measured activity by half. In general, melting point refers to the temperature, or range, at which the solid turns liquid.

Sequence of human NK2 (hNK2) receptor (P21452 whole entry): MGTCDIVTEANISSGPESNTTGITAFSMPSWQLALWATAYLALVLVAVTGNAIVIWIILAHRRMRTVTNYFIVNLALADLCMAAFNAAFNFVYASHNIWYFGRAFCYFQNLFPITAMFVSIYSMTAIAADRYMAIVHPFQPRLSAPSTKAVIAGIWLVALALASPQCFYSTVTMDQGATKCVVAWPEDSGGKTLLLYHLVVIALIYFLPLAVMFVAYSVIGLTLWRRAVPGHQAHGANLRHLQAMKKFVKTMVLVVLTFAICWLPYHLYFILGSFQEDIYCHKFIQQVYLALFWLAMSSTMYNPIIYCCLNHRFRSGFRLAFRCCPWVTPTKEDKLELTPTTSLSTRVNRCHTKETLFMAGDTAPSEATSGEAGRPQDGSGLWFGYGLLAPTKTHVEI
Sequence of human NK1 receptor (P25103 whole entry): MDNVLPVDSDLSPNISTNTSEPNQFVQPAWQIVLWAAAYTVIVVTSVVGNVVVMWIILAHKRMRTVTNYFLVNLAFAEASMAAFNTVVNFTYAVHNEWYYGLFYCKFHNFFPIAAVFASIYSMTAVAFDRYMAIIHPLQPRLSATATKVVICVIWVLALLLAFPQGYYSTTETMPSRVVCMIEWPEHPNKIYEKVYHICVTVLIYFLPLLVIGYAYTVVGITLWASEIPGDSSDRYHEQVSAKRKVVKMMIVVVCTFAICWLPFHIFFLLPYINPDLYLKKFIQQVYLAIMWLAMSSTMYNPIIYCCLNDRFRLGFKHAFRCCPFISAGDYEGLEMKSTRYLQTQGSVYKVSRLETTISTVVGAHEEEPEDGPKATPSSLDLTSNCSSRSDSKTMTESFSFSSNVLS
Sequence of human NK3 (hNK3) receptor (P29371 whole entry): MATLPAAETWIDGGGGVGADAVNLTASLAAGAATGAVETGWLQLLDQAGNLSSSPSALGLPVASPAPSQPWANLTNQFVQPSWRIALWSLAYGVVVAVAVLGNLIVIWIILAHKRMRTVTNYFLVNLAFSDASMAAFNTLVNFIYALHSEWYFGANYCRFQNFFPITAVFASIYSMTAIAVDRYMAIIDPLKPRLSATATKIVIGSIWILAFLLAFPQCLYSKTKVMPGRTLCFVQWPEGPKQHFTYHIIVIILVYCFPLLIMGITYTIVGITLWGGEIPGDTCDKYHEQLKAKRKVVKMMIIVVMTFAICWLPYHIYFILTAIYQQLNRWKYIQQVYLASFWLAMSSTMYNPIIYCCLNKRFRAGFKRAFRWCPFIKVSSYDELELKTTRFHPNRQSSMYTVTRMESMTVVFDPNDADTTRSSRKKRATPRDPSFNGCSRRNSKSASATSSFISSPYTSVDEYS

As for `CC(=O)N1CCC(C(=O)N2CC[C@@H](N(C)C(=O)c3ccc(-c4ccccc4)cc3)[C@H](c3ccc(Cl)c(Cl)c3)C2)CC1` (racemic) [Example 31, N-[(3R*,4R*)-1-[(1-acetylpiperidin-4-yl)carbonyl]-3-(3,4-dichlorophenyl)piperidin-4-yl]-N-methylbiphenyl-4-carboxamide], the IC50 on human NK1 receptor (radioligand binding inhibition, IM-9 cell receptor, read-out: hNK1 IC50) was found to be 410 nM; in data set [1], 1.7 nM; in data set [2], 160 nM.

In the case of `COc1ccc(C(=O)N(C)[C@@H]2CCN(C(=O)C3CCN(C(C)=O)CC3)C[C@H]2c2ccc(Cl)c(Cl)c2)cc1`, the melting point lay within 134 to 136 °C. With `CN(C(=O)c1ccc(Br)cc1)[C@@H]1CCN(C(=O)C2CCN(C(=O)CO)CC2)C[C@H]1c1ccc(Cl)c(Cl)c1.O` (hydrate or solvate), the melting point was 130 to 132 °C.

As for `CN(C(=O)c1ccc(Cl)cc1)[C@@H]1CCN(C(=O)Nc2ccc(F)nc2)C[C@H]1c1ccc(Cl)c(Cl)c1` [Example 516, (3R,4R)-4-{[(4-chlorophenyl)carbonyl](methyl)amino}-3-(3,4-dichlorophenyl)-N-(6-fluoropyridin-3-yl)piperidine-1-carboxamide], the melting point was in the range of 156 to 158 °C. Turning to `CC(=O)N1CCC(C(=O)N2C[C@@H](N(C)C(=O)c3cc(C(F)(F)F)cc(C(F)(F)F)c3)[C@H](c3ccc(Cl)c(Cl)c3)C2)CC1` (racemic) [Example 82, N-[(3S*,4R*)-1-[(1-acetylpiperidin-4-yl)carbonyl]-4-(3,4-dichlorophenyl)pyrrolidin-3-yl]-N-methyl-3,5-bis(trifluoromethyl)benzamide], the IC50 in data set [1] turned out to be 2.2 nM.

As for `CC(=O)N1CCC(C(=O)N2CC[C@@H](N(C)C(=O)c3ccc(Cl)cc3)[C@H](c3ccc(Cl)c(Cl)c3)C2)CC1.O` (hydrate or solvate), the melting point was 113 to 115 °C. In the case of `CC(=O)N1CCC(C(=O)N2CC[C@@H](N(C)C(=O)c3ccc(N4CCOCC4)cc3)[C@H](c3ccc(Cl)c(Cl)c3)C2)CC1.O` [Example 268, N-[(3R,4R)-1-[(1-acetylpiperidin-4-yl)carbonyl]-3-(3,4-dichlorophenyl)piperidin-4-yl]-N-methyl-4-morpholin-4-ylbenzamide monohydrate], the “hNK1 % inh. (10 μM)” value at human NK1 receptor (10 μM) worked out at 58.2% inh. The same molecule yielded a 50% inhibitory concentration (IC50) in data set [1] of 0.42 nM. The molecule `CC(=O)N1CCC(C(=O)N2CC[C@@H](N(C)C(=O)c3ccc(N4CCOCC4)cc3)[C@H](c3ccc(Cl)c(Cl)c3)C2)CC1.O` (hydrate or solvate) [Example 268, N-[(3R,4R)-1-[(1-acetylpiperidin-4-yl)carbonyl]-3-(3,4-dichlorophenyl)piperidin-4-yl]-N-methyl-4-morpholin-4-ylbenzamide monohydrate] returned a melting point of 136 to 139 °C.

Molecule `CN(C(=O)c1ccc(C(F)(F)F)cc1)[C@@H]1CCN(C(=O)C2CCN(C(=O)CO)CC2)C[C@H]1c1ccc(Cl)c(Cl)c1.O` (hydrate or solvate) had a melting point of 124 to 127 °C. The same measure, in the same setting: under `CC(=O)N1CCC(C(=O)N2CC[C@@H](N(C)C(=O)c3ccc(Br)cn3)[C@H](c3ccc(Cl)c(Cl)c3)C2)CC1` stands 128 to 130 °C; under `CN(C(=O)c1ccc(Cl)cc1)[C@@H]1CCN(C(=O)C2CCN(C(=O)CO)CC2)C[C@H]1c1ccc(Cl)c(Cl)c1.O` (hydrate or solvate), 128 to 131 °C.
